Assay results taken from US8372865B2, “Dihydropyridone amides as P2X7 modulators” (Roche Palo Alto LLC, priority 2008, dated 2013).

Molecular target: T1, P2X7 receptor (UniProt Q99572)
T1 sequence (Q99572 1-595): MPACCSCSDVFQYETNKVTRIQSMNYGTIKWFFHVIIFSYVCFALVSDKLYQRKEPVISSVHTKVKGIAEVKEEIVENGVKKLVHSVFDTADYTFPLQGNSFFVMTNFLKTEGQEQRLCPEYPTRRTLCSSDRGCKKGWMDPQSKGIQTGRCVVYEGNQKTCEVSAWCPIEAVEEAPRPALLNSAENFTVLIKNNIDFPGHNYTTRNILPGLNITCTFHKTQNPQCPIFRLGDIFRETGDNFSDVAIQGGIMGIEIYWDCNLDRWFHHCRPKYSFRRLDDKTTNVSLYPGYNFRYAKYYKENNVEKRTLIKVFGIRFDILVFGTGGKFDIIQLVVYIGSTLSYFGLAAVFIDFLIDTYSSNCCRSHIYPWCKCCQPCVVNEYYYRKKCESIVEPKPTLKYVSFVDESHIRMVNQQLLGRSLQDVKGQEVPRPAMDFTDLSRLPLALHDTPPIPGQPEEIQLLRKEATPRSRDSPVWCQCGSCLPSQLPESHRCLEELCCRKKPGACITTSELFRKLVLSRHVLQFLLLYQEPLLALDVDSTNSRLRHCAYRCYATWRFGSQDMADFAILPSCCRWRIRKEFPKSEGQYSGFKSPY
Experiment: pKi of Table 1 (assay not stated)
Type: cell-based
Description: Intracellular Calcium Flux (FLIPR) Assay
Stock solutions of compounds were prepared from powders as a 10 mM DMSO stock solution. These solutions were stored at RT during the two week period of these experiments to prevent freeze-thaw of the DMSO stocks. The DMSO stocks were added to the appropriate assay buffer at a concentration of 10 μM, and then diluted serially to the final concentrations that were tested. […] The aqueous solutions of compounds as well as ATP (Sigma A7699) and BzATP (Sigma B6396) were prepared fresh for each day of experiment.
1321N1 cells stably expressing the full length human P2X7 gene (1321N1-hP2X7) and HEK293 cells stably expressing the full length rat P2X7 gene (HEK293-rP2X7) were obtained from the Roche Cell Culture Facility. 1321N1-hP2X7 cells were grown in Dulbecco's Modified Eagle's Medium (DMEM) high glucose supplemented with 10% FBS and 250 μg/mL G418. HEK293-rP2X7 cells were grown in DMEM/F-12 supplemented with 10% FBS, 1 mM CaCl2, 2 mM MgCl2, 2 mM L-Glutamine and 500 μg/ml G418. Cells were split such that they never became>70% confluent.
On the day prior to the experiment, 1321N1-hP2X7 or HEK293-rP2X7 cells were released into suspension with calcium-free PBS+Versene and washed by centrifugation with calcium-free PBS to remove the Versene. Cells were resuspended in growth medium at a density of 2.5×10^5 cells/mL and seeded into black walled, clear bottom 96 well plates (50,000 cells/well) approximately 18 hr prior to intracellular calcium flux experiments.
On the day of the experiment, plates were washed with FLIPR buffer (calcium- and magnesium-free Hank's Balanced Salt Solution (HBSS) supplemented with 10 mM Hepes, 2.5 mM probenecid and 2 mM calcium chloride) using a BIO-TEK 96 channel plate washer and incubated with […] fluo-3 dye at 37° C. for one hr. The dye was then removed by plate washing and the cells were allowed to equilibrate for 20 min at room temperature with antagonist or vehicle (FLIPR buffer). Agonist (100 μM BzATP final concentration for hP2X7; 5 μM BzATP final concentration or rP2X7) was added online with the FLIPR and fluorescence measurements made at 1 sec intervals for 60 sec followed by 3 sec intervals for a further 4 min (5 min total). A final addition of 5 μM ionomycin was made and the maximal BzATP-evoked fluorescence normalized to the maximal ionomycin-evoked fluorescence.

| Compound | pKi |
| --- | --- |
| O=C1CC(c2cccc(F)c2)C(C(=O)Nc2cccc3[nH]ccc23)=CN1 (centres unmarked) [Compound 1, 4-(3-Fluoro-phenyl)-6-oxo-1,4,5,6-tetrahydro-pyridine-3-carboxylic acid (1H-indol-4-yl)-amide] | 5.86 |
| O=C1CC(c2cccc(F)c2)C(C(=O)Nc2ccc3cc[nH]c3c2)=CN1 (centres unmarked) [Compound 2, 4-(3-Fluoro-phenyl)-6-oxo-1,4,5,6-tetrahydro-pyridine-3-carboxylic acid (1H-indol-6-yl)-amide] | 5.24 |
| O=C1C[C@@H](c2cccc(F)c2)C(C(=O)Nc2ccc3ncccc3c2Br)=CN1 [Compound 4, (S)-4-(3-Fluoro-phenyl)-6-oxo-1,4,5,6-tetrahydro-pyridine-3-carboxylic acid (5-bromo-quinolin-6-yl)-amide] | 6.953 |
| O=C1C[C@@H](c2ccc(F)cc2)C(C(=O)Nc2cccc3ncccc23)=CN1 [Compound 5, (S)-4-(4-Fluoro-phenyl)-6-oxo-1,4,5,6-tetrahydro-pyridine-3-carboxylic acid quinolin-5-ylamide] | 5.345 |
| O=C1C[C@@H](c2ccc(F)cc2)C(C(=O)Nc2ccc3ncccc3c2Br)=CN1 [Compound 6, (S)-4-(4-Fluoro-phenyl)-6-oxo-1,4,5,6-tetrahydro-pyridine-3-carboxylic acid (5-bromo-quinolin-6-yl)-amide] | 7.135 |
| CCc1cc2ncccc2cc1NC(=O)C1=CNC(=O)C[C@H]1c1ccc(F)cc1 [Compound 7, (S)-4-(4-Fluoro-phenyl)-6-oxo-1,4,5,6-tetrahydro-pyridine-3-carboxylic acid (7-ethyl-quinolin-6-yl)-amide] | 6.673 |
| CCc1c(NC(=O)C2=CNC(=O)C[C@H]2c2ccc(F)cc2)ccc2ncccc12 [Compound 8, (S)-4-(4-Fluoro-phenyl)-6-oxo-1,4,5,6-tetrahydro-pyridine-3-carboxylic acid (5-ethyl-quinolin-6-yl)-amide] | 7.69 |
| Cc1cc2ccn(CCO)c2cc1NC(=O)C1=CNC(=O)C[C@H]1c1ccc(F)cc1 [Compound 9, (S)-4-(4-Fluoro-phenyl)-6-oxo-1,4,5,6-tetrahydro-pyridine-3-carboxylic acid [1-(2-hydroxy-ethyl)-5-methyl-1H-indol-6-yl]-amide] | 7.71 |
| Cc1c(NC(=O)C2=CNC(=O)C[C@H]2c2cccc(F)c2)ccc2ncccc12 [Compound 10, (S)-4-(3-Fluoro-phenyl)-6-oxo-1,4,5,6-tetrahydro-pyridine-3-carboxylic acid (5-methyl-quinolin-6-yl)-amide] | 6.645 |
| O=C1C[C@@H](c2cccc(F)c2)C(C(=O)Nc2cc3c(cc2Br)CCC(=O)N3)=CN1 [Compound 11, (S)-4-(3-Fluoro-phenyl)-6-oxo-1,4,5,6-tetrahydro-pyridine-3-carboxylic acid (6-bromo-2-oxo-1,2,3,4-tetrahydro-quinolin-7-yl)-amide] | 5.415 |
| Cc1ccc2ncccc2c1NC(=O)C1=CNC(=O)C[C@H]1c1cccc(F)c1 [Compound 12, (S)-4-(3-Fluoro-phenyl)-6-oxo-1,4,5,6-tetrahydro-pyridine-3-carboxylic acid (6-methyl-quinolin-5-yl)-amide] | 7.695 |
| CN1C(=O)CCc2cc(Br)c(NC(=O)C3=CNC(=O)C[C@H]3c3ccc(F)cc3)cc21 [Compound 13, (S)-4-(4-Fluoro-phenyl)-6-oxo-1,4,5,6-tetrahydro-pyridine-3-carboxylic acid (6-bromo-1-methyl-2-oxo-1,2,3,4-tetrahydro-quinolin-7-yl)-amide] | 6.9 |
| O=C1C[C@@H](c2ccc(F)cc2)C(C(=O)Nc2cccc3cnccc23)=CN1 [Compound 14, (S)-4-(4-Fluoro-phenyl)-6-oxo-1,4,5,6-tetrahydro-pyridine-3-carboxylic acid isoquinolin-5-ylamide] | 6.425 |
| Cc1ccc2c(NC(=O)C3=CNC(=O)C[C@H]3c3ccc(F)cc3)cccc2n1 [Compound 15, (S)-4-(4-Fluoro-phenyl)-6-oxo-1,4,5,6-tetrahydro-pyridine-3-carboxylic acid (2-methyl-quinolin-5-yl)-amide] | 7.46 |
| CCc1cc2ccn(CCO)c2cc1NC(=O)C1=CNC(=O)C[C@H]1c1ccc(F)cc1 [Compound 16, (S)-4-(4-Fluoro-phenyl)-6-oxo-1,4,5,6-tetrahydro-pyridine-3-carboxylic acid [5-ethyl-1-(2-hydroxy-ethyl)-1H-indol-6-yl]-amide] | 7.575 |
| Cc1c(NC(=O)C2=CNC(=O)C[C@H]2c2ccc(F)cc2)ccc2ncccc12 [Compound 17, (S)-4-(4-Fluoro-phenyl)-6-oxo-1,4,5,6-tetrahydro-pyridine-3-carboxylic acid (5-methyl-quinolin-6-yl)-amide] | 6.805 |
| Cc1cc2c(cc1NC(=O)C1=CNC(=O)C[C@H]1c1ccc(F)cc1)N(C)C(=O)CC2 [Compound 18, (S)-4-(4-Fluoro-phenyl)-6-oxo-1,4,5,6-tetrahydro-pyridine-3-carboxylic acid (1,6-dimethyl-2-oxo-1,2,3,4-tetrahydro-quinolin-7-yl)-amide] | 7.16 |
| O=C1C[C@@H](c2ccc(F)cc2)C(C(=O)Nc2cc3c(cc2Br)CCC(=O)N3CCO)=CN1 [Compound 19, (S)-4-(4-Fluoro-phenyl)-6-oxo-1,4,5,6-tetrahydro-pyridine-3-carboxylic acid [6-bromo-1-(2-hydroxy-ethyl)-2-oxo-1,2,3,4-tetrahydro-quinolin-7-yl]-amide] | 5.535 |
| Cc1cc2ncccc2cc1NC(=O)C1=CNC(=O)C[C@H]1c1cccc(F)c1 [Compound 20, (S)-4-(3-Fluoro-phenyl)-6-oxo-1,4,5,6-tetrahydro-pyridine-3-carboxylic acid (7-methyl-quinolin-6-yl)-amide] | 6.825 |
| O=C1C[C@@H](c2cccc(F)c2)C(C(=O)Nc2cc3c(cc2Br)OCC(=O)N3)=CN1 [Compound 21, (S)-4-(3-Fluoro-phenyl)-6-oxo-1,4,5,6-tetrahydro-pyridine-3-carboxylic acid (7-bromo-3-oxo-3,4-dihydro-2H-benzo[1,4]oxazin-6-yl)-amide] | 5.925 |
| CN1C(=O)COc2cc(Br)c(NC(=O)C3=CNC(=O)C[C@H]3c3cccc(F)c3)cc21 [Compound 22, (S)-4-(3-Fluoro-phenyl)-6-oxo-1,4,5,6-tetrahydro-pyridine-3-carboxylic acid (7-bromo-4-methyl-3-oxo-3,4-dihydro-2H-benzo[1,4]oxazin-6-yl)-amide] | 6.905 |
| Cc1cc2c(cc1NC(=O)C1=CNC(=O)C[C@H]1c1ccc(F)cc1)N(C)C(=O)CO2 [Compound 23, (S)-4-(4-Fluoro-phenyl)-6-oxo-1,4,5,6-tetrahydro-pyridine-3-carboxylic acid (4,7-dimethyl-3-oxo-3,4-dihydro-2H-benzo[1,4]oxazin-6-yl)-amide] | 6.73 |
| Cc1cc2c(cc1NC(=O)C1=CNC(=O)C[C@H]1c1cccc(F)c1)N(C)C(=O)CO2 [Compound 24, (S)-4-(3-Fluoro-phenyl)-6-oxo-1,4,5,6-tetrahydro-pyridine-3-carboxylic acid (4,7-dimethyl-3-oxo-3,4-dihydro-2H-benzo[1,4]oxazin-6-yl)-amide] | 7.015 |
